Data taken from publication PMC7549094 (Journal of Medicinal Chemistry, 2020).

Experiments:
[1] = in vivo; settings: Balb/c, mouse, plasma
Method: In Vivo PK Studies in Mice.
The solution was filtered using a 0.45 m syringe filter before dosing. Two male Balb/c mice were administered 1 intravenously via the lateral tail
vein at 5 mg/kg with a dose volume of 2.0 mL/kg. 1 was also formulated in a suspension of 0.5%
methylcellulose with 0.5% Tween 80 (0.5% MC/0.5% Tw80) in water at 2.5 mg/mL. A group of mice
(n=3) were administered 1 orally via gavage at 20 mg/kg with a dose volume of 8.0 mL/kg.
The mouse blood samples were centrifuged to separate plasma and the plasma samples were frozen at -
In Vivo PK Studies in Rats.
Two male Wistar rats were administered
1 intravenously via the lateral tail vein at 3 mg/kg with a dose volume of 1.0 mL/kg. 1 was also formulated
in a suspension of 0.5% methylcellulose with 0.5% Tween 80 (0.5% MC/0.5% Tw80) in water at 2.0
mg/mL. The second group of rats (n=3) were administered 1 orally via gavage at 10 mg/kg in suspension
with a dose volume of 5.0 mL/kg. Six blood samples of 100 μL each were collected serially from each
animal via the saphenous vein up to 24 hours after dosing. The rat blood samples were centrifuged to
separate plasma and the plasma samples were frozen at -20°C until analysis.
In Vivo PK Studies in Dogs.
The solution was filtered using a 0.45 m syringe filter before dosing. Three male Beagle dogs were administered 1 intravenously via saphenous
vein at 0.3 mg/kg with a dose volume of 0.1 mL/kg. 1 was also formulated in a suspension of 0.5%
methylcellulose with 0.5% Tween 80 (0.5%MC/0.5% Tween 80) in water at 1.0 mg/mL. The second
group of male dogs (n=2) were administered 1- orally via gavage at 1.0 mg/kg with a dose volume of 1.0
mL/kg. Seven blood samples of 250 µL each were collected serially from each animal via the jugular vein
The dog blood samples were centrifuged to separate plasma and the plasma
samples were frozen at -20 °C until analysis.

[2] = microsomal extraction ratio, 1 h incubation in microsomes
[3] = biological target: hr D3 (Homo sapiens, UniProt P35462); assay: receptor profile (Table S4); assay type: binding
[4] = biological target: hr ERBB2 (Homo sapiens, UniProt P04626); assay: receptor profile (Table S4); assay type: biochemical
[5] = biological target: hr 5-HT2A ag (Homo sapiens, UniProt P28223); assay: receptor profile (Table S4); assay type: biochemical
[6] = biological target: T1, hr M2 ag (Homo sapiens, UniProt P08172); assay: receptor profile (Table S4); assay type: biochemical
T1 sequence (P08172 1-466): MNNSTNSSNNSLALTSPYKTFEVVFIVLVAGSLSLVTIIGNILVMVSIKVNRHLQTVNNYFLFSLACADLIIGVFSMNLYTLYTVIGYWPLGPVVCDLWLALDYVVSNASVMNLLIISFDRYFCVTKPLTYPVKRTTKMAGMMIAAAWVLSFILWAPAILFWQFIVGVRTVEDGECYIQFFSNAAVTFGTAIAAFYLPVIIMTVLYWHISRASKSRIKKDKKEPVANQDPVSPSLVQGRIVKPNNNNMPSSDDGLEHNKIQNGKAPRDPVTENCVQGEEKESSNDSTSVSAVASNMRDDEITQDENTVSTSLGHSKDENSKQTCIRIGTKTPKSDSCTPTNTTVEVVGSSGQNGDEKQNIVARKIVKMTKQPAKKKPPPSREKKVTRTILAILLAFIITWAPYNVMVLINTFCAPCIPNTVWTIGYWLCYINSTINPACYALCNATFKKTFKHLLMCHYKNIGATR

[7] = system: hr GABAA antag
[8] = biological target: hr CB1 antag (Homo sapiens, UniProt P21554); assay: receptor profile (Table S4); assay type: biochemical
[9] = biological target: hERG (Homo sapiens, UniProt Q12809); assay: receptor profile (Table S4)
[10] = microsomal extraction ratio, 1 h incubation in microsomes; remark: listed apart in the source
[11] = biological target: T2, hr TP antag (Homo sapiens, UniProt P21731); assay: receptor profile (Table S4); assay type: biochemical
T2 sequence (P21731 1-343): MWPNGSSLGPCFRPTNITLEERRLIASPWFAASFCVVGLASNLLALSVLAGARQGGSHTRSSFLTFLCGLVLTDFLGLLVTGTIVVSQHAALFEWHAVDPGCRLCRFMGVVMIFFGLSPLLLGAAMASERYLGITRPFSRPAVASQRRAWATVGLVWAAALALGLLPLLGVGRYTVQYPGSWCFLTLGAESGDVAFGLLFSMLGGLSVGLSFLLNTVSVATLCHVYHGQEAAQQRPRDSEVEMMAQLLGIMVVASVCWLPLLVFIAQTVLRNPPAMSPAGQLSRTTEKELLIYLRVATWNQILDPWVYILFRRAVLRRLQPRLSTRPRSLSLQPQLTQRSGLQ

[12] = microsomal extraction ratio, 1 h incubation in microsomes; remark: listed apart in the source
[13] = biological target: T3, hr AT1 (Homo sapiens, UniProt P30556); assay: receptor profile (Table S4); assay type: binding
T3 sequence (P30556 1-359): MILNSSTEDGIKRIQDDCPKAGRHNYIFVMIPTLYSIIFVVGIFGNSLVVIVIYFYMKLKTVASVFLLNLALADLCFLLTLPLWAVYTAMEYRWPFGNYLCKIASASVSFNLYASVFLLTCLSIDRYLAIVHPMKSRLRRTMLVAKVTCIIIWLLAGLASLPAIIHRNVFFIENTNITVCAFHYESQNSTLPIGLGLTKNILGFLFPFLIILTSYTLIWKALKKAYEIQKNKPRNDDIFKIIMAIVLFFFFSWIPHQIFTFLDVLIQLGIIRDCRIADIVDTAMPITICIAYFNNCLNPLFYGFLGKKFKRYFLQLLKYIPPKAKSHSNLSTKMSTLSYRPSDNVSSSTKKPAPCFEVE

Sequence of hr D3 (P35462 whole entry): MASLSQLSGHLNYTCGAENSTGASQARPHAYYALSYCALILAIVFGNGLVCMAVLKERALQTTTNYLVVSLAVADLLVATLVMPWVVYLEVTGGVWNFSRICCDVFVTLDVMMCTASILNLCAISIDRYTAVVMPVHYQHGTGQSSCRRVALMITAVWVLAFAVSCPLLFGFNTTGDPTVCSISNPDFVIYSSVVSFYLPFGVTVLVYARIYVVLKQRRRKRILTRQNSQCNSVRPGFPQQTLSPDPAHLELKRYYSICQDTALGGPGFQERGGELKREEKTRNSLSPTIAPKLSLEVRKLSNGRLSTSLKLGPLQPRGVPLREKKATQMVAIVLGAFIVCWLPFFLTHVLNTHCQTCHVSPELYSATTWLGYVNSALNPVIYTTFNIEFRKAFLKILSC
Sequence of hERG (Q12809 whole entry): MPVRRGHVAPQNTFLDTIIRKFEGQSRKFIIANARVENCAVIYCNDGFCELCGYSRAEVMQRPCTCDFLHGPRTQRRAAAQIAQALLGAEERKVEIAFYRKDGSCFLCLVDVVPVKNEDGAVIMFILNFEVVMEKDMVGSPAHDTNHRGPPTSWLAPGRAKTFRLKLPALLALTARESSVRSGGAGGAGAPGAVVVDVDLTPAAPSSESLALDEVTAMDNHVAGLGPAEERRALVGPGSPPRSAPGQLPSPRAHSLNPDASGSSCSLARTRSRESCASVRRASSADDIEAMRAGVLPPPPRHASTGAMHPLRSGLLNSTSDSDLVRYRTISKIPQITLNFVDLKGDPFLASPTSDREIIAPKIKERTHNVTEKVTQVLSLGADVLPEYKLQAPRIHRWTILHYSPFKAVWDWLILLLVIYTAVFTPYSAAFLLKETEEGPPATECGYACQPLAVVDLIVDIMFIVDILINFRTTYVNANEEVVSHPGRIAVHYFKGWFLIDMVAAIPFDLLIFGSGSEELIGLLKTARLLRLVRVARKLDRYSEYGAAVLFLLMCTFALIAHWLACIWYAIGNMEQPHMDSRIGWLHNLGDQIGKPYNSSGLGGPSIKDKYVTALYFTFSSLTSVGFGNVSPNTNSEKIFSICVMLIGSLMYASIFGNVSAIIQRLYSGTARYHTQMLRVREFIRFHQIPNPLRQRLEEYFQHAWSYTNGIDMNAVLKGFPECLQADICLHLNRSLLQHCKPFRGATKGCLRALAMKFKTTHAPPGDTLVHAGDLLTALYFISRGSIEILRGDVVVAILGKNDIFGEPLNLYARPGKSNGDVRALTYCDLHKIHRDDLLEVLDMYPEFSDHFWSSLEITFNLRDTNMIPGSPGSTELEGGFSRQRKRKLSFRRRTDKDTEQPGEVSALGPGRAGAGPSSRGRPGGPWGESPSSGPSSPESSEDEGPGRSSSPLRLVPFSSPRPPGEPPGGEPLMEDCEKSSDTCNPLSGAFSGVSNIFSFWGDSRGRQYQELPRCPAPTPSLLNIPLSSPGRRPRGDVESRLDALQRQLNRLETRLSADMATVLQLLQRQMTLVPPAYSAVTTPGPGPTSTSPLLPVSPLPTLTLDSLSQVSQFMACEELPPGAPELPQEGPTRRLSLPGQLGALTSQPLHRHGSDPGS
Sequence of hr 5-HT2A ag (P28223 whole entry): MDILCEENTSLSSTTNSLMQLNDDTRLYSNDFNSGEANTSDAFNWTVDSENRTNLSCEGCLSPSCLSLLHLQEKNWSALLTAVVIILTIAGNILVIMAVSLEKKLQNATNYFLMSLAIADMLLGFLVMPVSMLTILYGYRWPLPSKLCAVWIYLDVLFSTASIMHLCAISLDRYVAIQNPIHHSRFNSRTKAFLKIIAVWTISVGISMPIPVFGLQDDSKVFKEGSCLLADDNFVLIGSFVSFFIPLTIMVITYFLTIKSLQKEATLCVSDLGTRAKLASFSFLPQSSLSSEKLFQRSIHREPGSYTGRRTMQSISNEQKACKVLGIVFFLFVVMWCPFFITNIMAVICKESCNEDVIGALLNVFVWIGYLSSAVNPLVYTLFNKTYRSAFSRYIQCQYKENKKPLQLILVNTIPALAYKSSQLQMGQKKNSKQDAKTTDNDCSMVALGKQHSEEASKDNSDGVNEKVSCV
Sequence of hr CB1 antag (P21554 whole entry): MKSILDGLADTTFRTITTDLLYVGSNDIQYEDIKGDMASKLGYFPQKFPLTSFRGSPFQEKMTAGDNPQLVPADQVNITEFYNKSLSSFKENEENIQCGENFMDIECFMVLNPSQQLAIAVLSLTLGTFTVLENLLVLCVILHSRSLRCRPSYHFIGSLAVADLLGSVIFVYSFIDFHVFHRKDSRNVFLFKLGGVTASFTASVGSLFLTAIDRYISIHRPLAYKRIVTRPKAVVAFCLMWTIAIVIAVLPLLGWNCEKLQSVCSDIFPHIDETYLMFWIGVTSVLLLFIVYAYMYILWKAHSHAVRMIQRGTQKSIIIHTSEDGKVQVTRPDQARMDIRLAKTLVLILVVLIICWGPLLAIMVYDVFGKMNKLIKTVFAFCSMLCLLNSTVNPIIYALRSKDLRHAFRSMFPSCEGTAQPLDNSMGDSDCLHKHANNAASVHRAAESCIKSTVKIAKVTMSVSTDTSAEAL
Sequence of hr ERBB2 (P04626 23-1255): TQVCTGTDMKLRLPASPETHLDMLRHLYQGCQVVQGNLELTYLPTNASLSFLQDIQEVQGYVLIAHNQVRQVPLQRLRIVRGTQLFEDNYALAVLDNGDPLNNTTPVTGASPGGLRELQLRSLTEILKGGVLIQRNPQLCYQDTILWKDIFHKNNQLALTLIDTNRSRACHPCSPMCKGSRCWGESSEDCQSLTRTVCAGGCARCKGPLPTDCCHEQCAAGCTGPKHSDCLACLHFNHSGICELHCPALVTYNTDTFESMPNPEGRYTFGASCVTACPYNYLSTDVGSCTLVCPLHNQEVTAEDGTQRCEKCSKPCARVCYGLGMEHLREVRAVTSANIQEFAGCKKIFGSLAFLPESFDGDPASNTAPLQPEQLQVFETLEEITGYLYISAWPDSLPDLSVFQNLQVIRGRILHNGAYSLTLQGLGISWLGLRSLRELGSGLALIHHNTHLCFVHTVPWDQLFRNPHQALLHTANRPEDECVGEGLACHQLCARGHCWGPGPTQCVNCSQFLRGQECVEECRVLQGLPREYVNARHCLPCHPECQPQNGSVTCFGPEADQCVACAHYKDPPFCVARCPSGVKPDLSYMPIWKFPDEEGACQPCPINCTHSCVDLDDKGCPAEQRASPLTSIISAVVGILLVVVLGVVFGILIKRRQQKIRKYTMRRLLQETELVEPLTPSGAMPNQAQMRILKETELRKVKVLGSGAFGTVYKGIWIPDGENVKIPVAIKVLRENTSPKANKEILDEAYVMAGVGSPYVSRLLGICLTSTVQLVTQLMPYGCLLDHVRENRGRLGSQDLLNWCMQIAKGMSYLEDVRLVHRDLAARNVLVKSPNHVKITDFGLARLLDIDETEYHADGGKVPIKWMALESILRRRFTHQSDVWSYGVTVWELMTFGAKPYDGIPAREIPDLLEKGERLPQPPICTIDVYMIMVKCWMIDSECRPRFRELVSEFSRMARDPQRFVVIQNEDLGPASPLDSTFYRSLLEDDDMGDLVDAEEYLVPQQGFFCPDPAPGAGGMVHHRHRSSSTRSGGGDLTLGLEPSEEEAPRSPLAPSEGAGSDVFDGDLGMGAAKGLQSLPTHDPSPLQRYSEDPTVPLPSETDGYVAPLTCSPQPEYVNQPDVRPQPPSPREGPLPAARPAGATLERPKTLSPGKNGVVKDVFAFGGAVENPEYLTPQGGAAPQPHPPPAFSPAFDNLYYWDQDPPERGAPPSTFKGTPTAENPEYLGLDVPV

`Cc1nc(C)c(C(=O)Nc2ccc(F)c(-c3nc4ncc(-c5ncccc5C)cn4n3)c2)o1` [compound 1, N-(4-Fluoro-3-(6-(3-methylpyridin-2-yl)-[1,2,4]triazolo[1,5-a]pyrimidin-2-yl)phenyl)-2,4-dimethyloxazole-5-carboxamide] gave a bioavailability ([1]; po, 20 mg/kg) of 46%, an MRT ([1]; male, iv, 5 mg/kg) of 4.6 h and a Vd ([1]; male, iv, 5 mg/kg) of 0.63 L/kg. The clearance ([1]; male, iv, 5 mg/kg) was 0.138 L/h/kg, the half-life ([1]; male, iv, 5 mg/kg) was 3.3 h and the ER dog [2] was < 0.24. The EC50/IC50 ([3]; hr D3) was > 30 µM, the inhibition at 10 µM ([3]; read-out: % inh/act @ 10 µM) was 9% and the inhibition at 30 µM ([3]; read-out: % inh/act @ 30 µM) was 7%. The EC50/IC50 ([4]; hr ERBB2) was > 30 µM, the inhibition at 10 µM ([4]; read-out: % inh/act @ 10 µM) was 0% and the inhibition at 30 µM ([4]; read-out: % inh/act @ 30 µM) was 0%. The EC50/IC50 ([5]; hr 5-HT2A ag) was > 30 µM, the inhibition at 10 µM ([5]; read-out: % inh/act @ 10 µM) was -7% and the inhibition at 30 µM ([5]; read-out: % inh/act @ 30 µM) was -10%. The EC50/IC50 ([6]; hr M2 ag) was > 30 µM, the inhibition at 10 µM ([6]; read-out: % inh/act @ 10 µM) was 0% and the inhibition at 30 µM ([6]; read-out: % inh/act @ 30 µM) was 1%. The “% inh/act @ 10 µM” value [7] was -5%, the “% inh/act @ 30 µM” value [7] was -4% and the EC50/IC50 ([8]; hr CB1 antag) was > 30 µM. For the same compound, the inhibition at 10 µM ([8]; read-out: % inh/act @ 10 µM) was -47%, the inhibition at 30 µM ([8]; read-out: % inh/act @ 30 µM) was -57% and the EC50/IC50 ([9]; hERG) was > 30 µM. The inhibition at 10 µM ([9]; human) was -36%, the inhibition at 30 µM ([9]; human) was -25% and the ER mouse [10] was < 0.21. For the same compound, the EC50/IC50 ([11]; hr TP antag) was > 30 µM, the inhibition at 10 µM ([11]; read-out: % inh/act @ 10 µM) was 14% and the inhibition at 30 µM ([11]; read-out: % inh/act @ 30 µM) was 28%. For the same compound, the ER human [12] was 0.27, the EC50/IC50 ([13]; hr AT1) was > 30 µM and the inhibition at 10 µM ([13]; read-out: % inh/act @ 10 µM) was 22%. For the same compound, the inhibition at 30 µM ([13]; read-out: % inh/act @ 30 µM) was 41%.
